Assay results as given in PubChem BioAssay AID248 (DTP/NCI, 2004).
Several values for one entry are separate records, joined by “and”; a condition that tells them apart may be missing. Equal entries are not always repeated. Toxic doses and inconclusive results are not listed. Rule as the data show it: active = T/C of 150% or more; inactive = T/C below 125%.

Test system: L1210 leukemia ip in BDF1 mice, survival T/C
Experiment: NCI In Vivo Anticancer Drug Screen. Data for tumor model L1210 Leukemia (intraperitoneal) in B6D2F1 (BDF1) mice
Conditions: endpoint: mean survival time, higher = longer survival
Summary of the method: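 Value reflects the ratio of survival in compound-treated mice to survival in vehicle-treated controls, with both groups carrying the same transplanted tumor.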

[1] = dose: 100.0 mg/kg/injection, schedule: Q01DX001 (ip), vehicle: Klucel (hydroxypropylcellulose) (HPC)
[2] = dose: 100.0 mg/kg/injection, schedule: Q01DX009 (ip), vehicle: Klucel (hydroxypropylcellulose) (HPC)
[3] = dose: 100.0 mg/kg/injection, schedule: Q04DX003 (ip), vehicle: Klucel (hydroxypropylcellulose) (HPC)
[4] = dose: 200.0 mg/kg/injection, schedule: Q01DX009 (ip), vehicle: Klucel (hydroxypropylcellulose) (HPC)
[5] = dose: 200.0 mg/kg/injection, schedule: Q04DX003 (ip), vehicle: Klucel (hydroxypropylcellulose) (HPC)
[6] = dose: 400.0 mg/kg/injection, schedule: Q01DX009 (ip), vehicle: Klucel (hydroxypropylcellulose) (HPC)
[7] = dose: 400.0 mg/kg/injection, schedule: Q04DX003 (ip), vehicle: Klucel (hydroxypropylcellulose) (HPC)
[8] = dose: 100.0 mg/kg/injection, schedule: Q04DX003 (ip), vehicle: saline
[9] = dose: 100.0 mg/kg/injection, schedule: Q04DX003 (ip), vehicle: saline with Tween-80
[10] = dose: 200.0 mg/kg/injection, schedule: Q04DX003 (ip), vehicle: saline with Tween-80
[11] = dose: 400.0 mg/kg/injection, schedule: Q04DX003 (ip), vehicle: saline with Tween-80

Measured: T/C

CCCCNS(=O)(=O)c1ccc(Cl)c([N+](=O)[O-])c1
inactive: dose: 12.5 mg/kg/injection, schedule: Q04DX003 (ip), vehicle: Klucel (hydroxypropylcellulose) (HPC) 95 % of control | dose: 25.0 mg/kg/injection, schedule: Q04DX003 (ip), vehicle: Klucel (hydroxypropylcellulose) (HPC) 103 % of control | dose: 50.0 mg/kg/injection, schedule: Q04DX003 (ip), vehicle: Klucel (hydroxypropylcellulose) (HPC) 100 % of control | dose: 100.0 mg/kg/injection, schedule: Q04DX003 (ip), vehicle: gum acacia 103 % of control | dose: 200.0 mg/kg/injection, schedule: Q04DX003 (ip), vehicle: gum acacia 105 % of control

NCc1ccc(OCc2nc(N)nc(N)c2-c2ccc(Cl)cc2)cc1
inactive: dose: 25.0 mg/kg/injection, schedule: Q01DX001 (ip), vehicle: saline with Tween-80 97 % of control | dose: 50.0 mg/kg/injection, schedule: Q01DX001 (ip), vehicle: saline with Tween-80 87 % of control | dose: 100.0 mg/kg/injection, schedule: Q01DX001 (ip), vehicle: saline with Tween-80 95 % of control and 96 % of control

NC(=O)c1nnc(-c2ccccn2)[nH]c1=O
inactive: [1] 93 % of control

NC(=S)N/N=C/c1nc2ccccc2[nH]c1=O
inactive: dose: 26.0 mg/kg/injection, schedule: Q03HX032 (ip), vehicle: saline with Tween-80 90 % of control and 91 % of control | dose: 40.0 mg/kg/injection, schedule: Q03HX032 (ip), vehicle: saline with Tween-80 95 % of control and 87 % of control | dose: 60.0 mg/kg/injection, schedule: Q03HX032 (ip), vehicle: saline with Tween-80 88 % of control and 90 % of control | dose: 90.0 mg/kg/injection, schedule: Q03HX032 (ip), vehicle: saline with Tween-80 94 % of control and 89 % of control | dose: 135.0 mg/kg/injection, schedule: Q03HX032 (ip), vehicle: saline with Tween-80 89 % of control

C/C(C(=O)O)=C(/Br)c1ccc([N+](=O)[O-])cc1
inactive: [2] 94 % of control | [3] 94 % of control | [4] 95 % of control | [5] 100 % of control | [6] 92 % of control | [7] 100 % of control

Nc1ncnc2c1ccn2Cc1ccccc1
inactive: dose: 50.0 mg/kg/injection, schedule: Q01DX001 (ip), vehicle: other 111 % of control | dose: 100.0 mg/kg/injection, schedule: Q01DX001 (ip), vehicle: other 97 % of control | dose: 200.0 mg/kg/injection, schedule: Q01DX001 (ip), vehicle: other 97 % of control | dose: 400.0 mg/kg/injection, schedule: Q01DX001 (ip), vehicle: other 103 % of control

O=C1C=CC(=O)N1c1ccc(N2C(=O)C=CC2=O)cc1
inactive: dose: 25.0 mg/kg/injection, schedule: Q04DX003 (ip), vehicle: saline 110 % of control | dose: 50.0 mg/kg/injection, schedule: Q04DX003 (ip), vehicle: saline 107 % of control | [8] 100 % of control

CCc1ccc(NC(=O)Nc2ccccc2C)cc1
inactive: [2] 92 % of control | [3] 93 % of control | [4] 94 % of control | [5] 93 % of control | [6] 100 % of control | [7] 94 % of control

COc1ccc(C(c2ccc(OC)cc2)c2cccc([N+](=O)[O-])c2)cc1
inactive: [9] 97 % of control | [10] 92 % of control

CC(=O)OCC(COC(C)=O)(OC(COC(C)=O)(COC(C)=O)c1ccc(C)c(C)c1)c1ccc(C)c(C)c1
inactive: dose: 50.0 mg/kg/injection, schedule: Q01DX001 (ip), vehicle: saline 97 % of control | dose: 100.0 mg/kg/injection, schedule: Q01DX001 (ip), vehicle: saline 100 % of control | dose: 200.0 mg/kg/injection, schedule: Q01DX001 (ip), vehicle: saline 97 % of control | dose: 400.0 mg/kg/injection, schedule: Q01DX001 (ip), vehicle: saline 100 % of control

C=CCNC(=O)OCC
inactive: [9] 100 % of control | [10] 95 % of control | [11] 100 % of control

OC(Cc1[nH]c2ccccc2c1C(O)(C(F)(F)F)C(F)(F)F)(C(F)(F)F)C(F)(F)F
inactive: dose: 100.0 mg/kg/injection, schedule: Q04DX003 (ip), vehicle: other 109 % of control | dose: 200.0 mg/kg/injection, schedule: Q04DX003 (ip), vehicle: other 109 % of control | dose: 400.0 mg/kg/injection, schedule: Q04DX003 (ip), vehicle: other 98 % of control

CCOC(=O)C(CN(CC)CC)c1ccccc1 (stereo not given)
inactive: dose: 88.8 mg/kg/injection, schedule: Q01DX001 (ip), vehicle: carboxymethylcellulose (CMC) 97 % of control and 105 % of control | dose: 100.0 mg/kg/injection, schedule: Q01DX001 (ip), vehicle: carboxymethylcellulose (CMC) 118 % of control | dose: 133.0 mg/kg/injection, schedule: Q01DX001 (ip), vehicle: carboxymethylcellulose (CMC) 97 % of control and 98 % of control | dose: 200.0 mg/kg/injection, schedule: Q01DX001 (ip), vehicle: carboxymethylcellulose (CMC) 105 % of control and 109 % of control | dose: 300.0 mg/kg/injection, schedule: Q01DX001 (ip), vehicle: carboxymethylcellulose (CMC) 98 % of control and 106 % of control | dose: 400.0 mg/kg/injection, schedule: Q01DX001 (ip), vehicle: carboxymethylcellulose (CMC) 115 % of control

CSc1ccc(OC(=O)NC2CCCCC2)cc1C
inactive: [2] 92 % of control | [3] 93 % of control | [4] 97 % of control | [5] 111 % of control | [6] 93 % of control | [7] 95 % of control

CN1CCN(c2nn3nnnc3c3ccccc23)CC1
inactive: dose: 20.0 mg/kg/injection, schedule: Q04DX003 (ip), vehicle: saline 98 % of control | dose: 40.0 mg/kg/injection, schedule: Q04DX003 (ip), vehicle: saline 104 % of control | dose: 80.0 mg/kg/injection, schedule: Q04DX003 (ip), vehicle: saline 95 % of control

O=C1CCCCC1Oc1ccccc1 (stereo not given)
inactive: dose: 100.0 mg/kg/injection, schedule: Q01DX009 (ip), vehicle: saline with Tween-80 95 % of control | [9] 95 % of control | dose: 200.0 mg/kg/injection, schedule: Q01DX009 (ip), vehicle: saline with Tween-80 101 % of control | [10] 98 % of control | dose: 400.0 mg/kg/injection, schedule: Q01DX009 (ip), vehicle: saline with Tween-80 86 % of control | [11] 93 % of control

Nc1cccc[n+]1CC1(c2ccccc2)OCCO1
inactive: dose: 50.0 mg/kg/injection, schedule: Q01DX001 (ip), vehicle: Klucel (hydroxypropylcellulose) (HPC) 110 % of control | [1] 106 % of control

CC1(c2ccc3ccccc3c2)OCC2(CCCC2)CO1
inactive: dose: 100.0 mg/kg/injection, schedule: Q04DX002 (ip), vehicle: gum acacia 117 % of control | dose: 200.0 mg/kg/injection, schedule: Q04DX002 (ip), vehicle: gum acacia 110 % of control | dose: 400.0 mg/kg/injection, schedule: Q04DX002 (ip), vehicle: gum acacia 103 % of control

Cc1ccccc1-n1nnnc1N
inactive: [8] 102 % of control | dose: 200.0 mg/kg/injection, schedule: Q04DX003 (ip), vehicle: saline 96 % of control | dose: 400.0 mg/kg/injection, schedule: Q04DX003 (ip), vehicle: saline 98 % of control

O=C(CCCC(O)(C1CC1)C1CC1)C1CC1
inactive: dose: 100.0 mg/kg/injection, schedule: Q01DX009 (ip), vehicle: acetone 106 % of control | dose: 100.0 mg/kg/injection, schedule: Q04DX003 (ip), vehicle: acetone 112 % of control | dose: 200.0 mg/kg/injection, schedule: Q01DX009 (ip), vehicle: acetone 106 % of control | dose: 200.0 mg/kg/injection, schedule: Q04DX003 (ip), vehicle: acetone 101 % of control | dose: 400.0 mg/kg/injection, schedule: Q01DX009 (ip), vehicle: acetone 109 % of control | dose: 400.0 mg/kg/injection, schedule: Q04DX003 (ip), vehicle: acetone 101 % of control
